ChEMBL document CHEMBL3885881, “DrugMatrix”

Species on record: Rattus norvegicus
Format: toxicity, organism-based, Sprague-Dawley
Details: in vivo, po, route oral GAVAGE, […]; for ABSOLUTE EOSINOPHIL / ABSOLUTE LYMPHOCYTE / ABSOLUTE MONOCYTE / ABSOLUTE SEGMENTED NEUTROPHIL / BASOPHIL / EOSINOPHIL / ERYTHROCYTE COUNT / HEMATOCRIT / HEMOGLOBIN / LEUKOCYTE COUNT / LYMPHOCYTE / MEAN CORPUSCULAR HEMOGLOBIN / MEAN CORPUSCULAR HEMOGLOBIN CONCENTRATION / MEAN CORPUSCULAR VOLUME / MONOCYTE / NEUTROPHIL / NUCLEATED RED BLOOD CELLS / PLATELET COUNT: tissue Blood; for ALANINE AMINOTRANSFERASE / ALBUMIN / ALKALINE PHOSPHATASE / ASPARTATE AMINOTRANSFERASE / BLOOD UREA NITROGEN / CARBON DIOXIDE / CHLORIDE / CHOLESTEROL / CREATINE PHOSPHOKINASE / CREATININE / GLUCOSE / LACTATE DEHYDROGENASE / LIPASE / PHOSPHORUS / POTASSIUM / SODIUM / TOTAL BILIRUBIN / TOTAL PROTEIN / URIC ACID: tissue Plasma
[1] = 130 mg/kg, 24 h, dose level Low, time 1 day
[2] = 500 mg/kg, 6 h, dose level High, time 0.25 day
[3] = 500 mg/kg, 24 h, dose level High, time 1 day

Description: DrugMatrix - Regimen: Single

With CCOC(=O)C(C)(C)Oc1ccc(Cl)cc1 [CLOFIBRATE] the “ABSOLUTE EOSINOPHIL” value [1] was 55.33 CELLS/uL, the “ABSOLUTE LYMPHOCYTE” value [1] was 15484.17 CELLS/uL and the “ABSOLUTE MONOCYTE” value [1] was 278.5 CELLS/uL. For the same compound, the “ABSOLUTE SEGMENTED NEUTROPHIL” value [1] was 965.33 CELLS/uL, the BASOPHIL [1] was 0% and the EOSINOPHIL [1] was 0.33%. The “ERYTHROCYTE COUNT” value [1] was 5.03 x10E6/uL, the HEMATOCRIT [1] was 32.6% and the HEMOGLOBIN [1] was 13.25 G/DL. The “LEUKOCYTE COUNT” value [1] was 16.78 x10E3/uL, the LYMPHOCYTE [1] was 92.17% and the “MEAN CORPUSCULAR HEMOGLOBIN” value [1] was 26.33 pg. The “MEAN CORPUSCULAR HEMOGLOBIN CONCENTRATION” value [1] was 40.65 G/DL, the “MEAN CORPUSCULAR VOLUME” value [1] was 64.78 fL and the MONOCYTE [1] was 1.67%. The NEUTROPHIL [1] was 5.83%, the “NUCLEATED RED BLOOD CELLS” value [1] was 0 /100WBC and the “PLATELET COUNT” value [1] was 862.83 x10E3/uL. For the same compound, the “ALANINE AMINOTRANSFERASE” value [1] was 67 u/L, the ALBUMIN [1] was 4.33 G/DL and the “ALKALINE PHOSPHATASE” value [1] was 318.17 u/L. The “ASPARTATE AMINOTRANSFERASE” value [1] was 75.17 u/L, the “BLOOD UREA NITROGEN” value [1] was 12.67 mg/dL and the “CARBON DIOXIDE” value [1] was 32 mmol/L. For the same compound, the CHLORIDE [1] was 100 MEQ/L, the CHOLESTEROL [1] was 47.33 mg/dL and the “CREATINE PHOSPHOKINASE” value [1] was 215.5 u/L. For the same compound, the CREATININE [1] was 0.16 mg/dL, the GLUCOSE [1] was 132.67 mg/dL and the “LACTATE DEHYDROGENASE” value [1] was 108.83 u/L. It also gave an LIPASE [1] of 10.5 u/L, a PHOSPHORUS [1] of 9.12 mg/dL and a POTASSIUM [1] of 6.21 MEQ/L. The SODIUM [1] was 142.78 MEQ/L, the “TOTAL BILIRUBIN” value [1] was 0.17 mg/dL and the “TOTAL PROTEIN” value [1] was 5.58 G/DL. For the same compound, the “URIC ACID” value [1] was 1.07 mg/dL, the “ABSOLUTE EOSINOPHIL” value [2] was 41.33 CELLS/uL and the “ABSOLUTE LYMPHOCYTE” value [2] was 7521 CELLS/uL. The “ABSOLUTE MONOCYTE” value [2] was 204.83 CELLS/uL, the “ABSOLUTE SEGMENTED NEUTROPHIL” value [2] was 899.5 CELLS/uL and the BASOPHIL [2] was 0%. For the same compound, the EOSINOPHIL [2] was 0.5%, the “ERYTHROCYTE COUNT” value [2] was 5.56 x10E6/uL and the HEMATOCRIT [2] was 35.4%. The HEMOGLOBIN [2] was 13.87 G/DL, the “LEUKOCYTE COUNT” value [2] was 8.67 x10E3/uL and the LYMPHOCYTE [2] was 86.5%. For the same compound, the “MEAN CORPUSCULAR HEMOGLOBIN” value [2] was 24.97 pg, the “MEAN CORPUSCULAR HEMOGLOBIN CONCENTRATION” value [2] was 39.18 G/DL and the “MEAN CORPUSCULAR VOLUME” value [2] was 63.73 fL. The MONOCYTE [2] was 2.33%, the NEUTROPHIL [2] was 10.67% and the “NUCLEATED RED BLOOD CELLS” value [2] was 0 /100WBC. The “PLATELET COUNT” value [2] was 1195.5 x10E3/uL, the “ALANINE AMINOTRANSFERASE” value [2] was 52.5 u/L and the ALBUMIN [2] was 4.53 G/DL. The “ALKALINE PHOSPHATASE” value [2] was 309.5 u/L, the “ASPARTATE AMINOTRANSFERASE” value [2] was 94.5 u/L and the “BLOOD UREA NITROGEN” value [2] was 9.33 mg/dL. For the same compound, the “CARBON DIOXIDE” value [2] was 22.5 mmol/L, the CHLORIDE [2] was 100.67 MEQ/L and the CHOLESTEROL [2] was 65.33 mg/dL. The “CREATINE PHOSPHOKINASE” value [2] was 333.17 u/L, the CREATININE [2] was 0.16 mg/dL and the GLUCOSE [2] was 130.33 mg/dL. The “LACTATE DEHYDROGENASE” value [2] was 146.83 u/L, the LIPASE [2] was 9.83 u/L and the PHOSPHORUS [2] was 11.68 mg/dL. The POTASSIUM [2] was 6.42 MEQ/L, the SODIUM [2] was 143.4 MEQ/L and the “TOTAL BILIRUBIN” value [2] was 0.18 mg/dL. For the same compound, the “TOTAL PROTEIN” value [2] was 6 G/DL, the “URIC ACID” value [2] was 1.37 mg/dL and the “ABSOLUTE EOSINOPHIL” value [3] was 42 CELLS/uL. The “ABSOLUTE LYMPHOCYTE” value [3] was 10953.5 CELLS/uL, the “ABSOLUTE MONOCYTE” value [3] was 221.67 CELLS/uL and the “ABSOLUTE SEGMENTED NEUTROPHIL” value [3] was 1432.83 CELLS/uL. For the same compound, the BASOPHIL [3] was 0%, the EOSINOPHIL [3] was 0.33% and the “ERYTHROCYTE COUNT” value [3] was 5.6 x10E6/uL. For the same compound, the HEMATOCRIT [3] was 35.22%, the HEMOGLOBIN [3] was 14.02 G/DL and the “LEUKOCYTE COUNT” value [3] was 12.65 x10E3/uL. For the same compound, the LYMPHOCYTE [3] was 86.83%, the “MEAN CORPUSCULAR HEMOGLOBIN” value [3] was 25.02 pg and the “MEAN CORPUSCULAR HEMOGLOBIN CONCENTRATION” value [3] was 39.8 G/DL. The “MEAN CORPUSCULAR VOLUME” value [3] was 62.93 fL, the MONOCYTE [3] was 1.67% and the NEUTROPHIL [3] was 11.17%. The “NUCLEATED RED BLOOD CELLS” value [3] was 0 /100WBC, the “PLATELET COUNT” value [3] was 1112.33 x10E3/uL and the “ALANINE AMINOTRANSFERASE” value [3] was 93.33 u/L. The ALBUMIN [3] was 4.55 G/DL, the “ALKALINE PHOSPHATASE” value [3] was 411.33 u/L and the “ASPARTATE AMINOTRANSFERASE” value [3] was 162.83 u/L. For the same compound, the “BLOOD UREA NITROGEN” value [3] was 11.67 mg/dL, the “CARBON DIOXIDE” value [3] was 33.5 mmol/L and the CHLORIDE [3] was 97.83 MEQ/L. For the same compound, the CHOLESTEROL [3] was 34.83 mg/dL, the “CREATINE PHOSPHOKINASE” value [3] was 245.67 u/L and the CREATININE [3] was 0.19 mg/dL. The GLUCOSE [3] was 137.17 mg/dL, the “LACTATE DEHYDROGENASE” value [3] was 114.17 u/L and the LIPASE [3] was 9.83 u/L. It also gave a PHOSPHORUS [3] of 10.23 mg/dL, a POTASSIUM [3] of 6.67 MEQ/L and an SODIUM [3] of 143.3 MEQ/L. The “TOTAL BILIRUBIN” value [3] was 0.25 mg/dL, the “TOTAL PROTEIN” value [3] was 5.77 G/DL and the “URIC ACID” value [3] was 1.18 mg/dL.
